Where “and” joins values, the source holds several entries; their conditions need not be identical. Equal entries are not always repeated. Calls of active or inactive are those of the source.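 Rule for the calls: active = fitted half-maximal concentration below 30 µM for cell fluorescence in pump-free yeast, so likely self-fluorescent; inactive = the rest.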
assay: concentration-dependent intrinsic compound fluorescence, S. cerevisiae AD/pABC3, flow cytometry, Cherry Pick1 hits, artefact control for antifungal efflux pump inhibitor project, dose response (AID 588620);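 note: red emission of unstained cells excited at 488 nm measured in PE-Texas Red channel; cell median fluorescence as percent of DMSO wells so 100% equals vehicle baseline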; settings: S. cerevisiae AD/pABC3 compound autofluorescence, flow cytometry; at 33.1 µM (top of the series)

SMILES	fluorescence response, % of control
Cc1noc(C)c1COc1ccccc1C(=O)N1CCN(c2cccc(C(F)(F)F)c2)CC1	88.1% (inactive)
COC(=O)c1ccc(CN2CCC(Oc3cccc(C(=O)N4CCCC4)c3)CC2)cc1	95.7% (inactive)
Cc1ccc(CNC(=O)CCCn2nc(C)c3c(C)n(-c4ccccc4)nc3c2=O)cc1	93.6% (inactive)
Cc1ccc(-c2c3c([nH]c(=S)c2C#N)CCCC3)o1	162% (inactive)
COc1ccccc1-c1sc2cc3c(cc2c1-c1ccc(OCCN2CCOCC2)cc1)OCO3	87.6% (inactive)
COc1ccc(Cn2c(-c3ccccc3)nc3c(c(=O)c4ccccc4n3C)c2=O)cc1	102% (inactive)
COc1cc(/C=C2/CC/C(=C/c3ccc(O)c(OC)c3)C2=O)ccc1O	347% (inactive)
O=C(O)CCCN1C(=O)/C(=C\c2ccc(-c3nc4ccccc4s3)o2)SC1=S	288% (inactive)
O=[N+]([O-])c1cc(/C=N\Nc2ccccn2)ccc1Cl	96.1% (inactive)
O=C(COC(=O)c1c(Cl)cccc1Cl)NCC1CCCO1 (centres undefined)	106% (inactive)
CCOC(=O)c1sc2nc3c(SCC(=O)O)cc(C(=O)c4ccccc4O)cn3c(=O)c2c1C	132% (inactive)
O=C1c2cc(Cl)ccc2OC2(CCNCC2)C12CC(c1ccc(Cl)cc1)=NO2 (centres undefined)	106% (inactive)
COc1ccc(C(=O)NC2CCCc3c2cnn3-c2ccccc2F)o1 (centres undefined)	86.3% (inactive)
COc1ccc(/C=C2\SC(=O)N(CCC(=O)Nc3ccccc3)C2=O)cc1OC	99.1% (inactive)
Cc1cc(C)cc(-n2ncc3c2CCCC3NC(=O)c2cc(C)[nH]n2)c1 (centres undefined)	96.3% (inactive)
Cc1c2ccncc2c(C)c2c1[nH]c1ccccc12	132% (inactive) and 1000% (inactive)
COc1ccc2c(-c3ccc(OCCN4CCOCC4)cc3)c(-c3ccccc3OC)sc2c1	102% (inactive)

SMILES	fluorescence response, % of control
COc1cccc(-c2sc3ccc(OC)cc3c2-c2ccc(OCCN3CCCC3)cc2)c1	112% (inactive)
O=C(Nc1ccc(O)cc1C(=O)O)c1ccc(NC(=O)c2ccco2)cc1	92.4% (inactive)
O=c1[nH]c(C2CCN(S(=O)(=O)c3ccc4c(c3)OCCO4)CC2)nc2c1nnn2Cc1ccccc1F	82.5% (inactive)
COc1ccccc1-c1sc2ccccc2c1-c1ccc(OCCN2CCOCC2)cc1	99.3% (inactive)
Cc1ccc(Cn2nnc3c(=O)[nH]c(C4CCN(S(=O)(=O)c5ccccc5F)CC4)nc32)cc1	90.8% (inactive)
Cc1ccc(-n2c(-c3ccc(Br)cc3)c[n+]3c2CCc2ccc4cccnc4c2-3)cc1	92.4% (inactive)
CC(C)OC(=O)c1ccc(COC(=O)c2cccc(-c3nnc(-c4ccccc4)o3)c2)cc1	118% (inactive)
CCOC(=O)c1c(-c2ccc(-c3ccccc3)cc2)csc1NC(=O)CNCCN(C)C	135% (inactive)
O=C(CSc1nnc(-c2cccnc2)n1Cc1ccco1)c1ccc(Cl)c(Cl)c1	81.2% (inactive)
CC(=O)Nc1ccc(NC(=O)Cc2ccc(F)cc2)cc1	106% (inactive)
CSc1ccccc1NC(=O)c1cc(-c2ccc3c(c2)OCO3)on1	101% (inactive)
CC(C)C(O)(C#CCN1CCCCC1)C(C)C	111% (inactive)
NC1=NC[C@H](Cc2ccc(O)cc2)N1CCCCC1CCCCC1	92.2% (inactive)
O=C(Cc1cccs1)N1CCN=C1SCc1ccccc1Cl	121% (inactive)
O=[N+]([O-])c1cnc2ccc3ccccc3c2c1	122% (inactive)
O=C(NC(=Nc1nc2ccccc2o1)NC(=O)c1ccccc1)c1ccccc1	102% (inactive)
Nc1ccc2nc(-c3cccc(-c4nc5ccc(N)cc5[nH]4)c3)[nH]c2c1	99.3% (inactive)
